Measurements as given in patent US11390631B1, “Benzodiazepine derivatives as RSV inhibitors” (priority 2015, dated 2022).
pEC50: −log10 of the molar value.

Test system: Human RSV-A (“Long” strain)
Test: RSV-A assay: inhibition of cytopathic effect in Hep-2 cells, ATPlite readout
Type: cell-based, Human respiratory syncytial virus (HRSV)
Conditions: Hep-2 cells, MOI 0.1, 5-day incubation, ATPlite; read-out: Human RSV-A (“Long” strain) EC50
Source text: Hep-2 cells, (originally derived from tumors grown in irradiated-cortisonised weanling rats that had been injected with epidermoid carcinoma tissue from a person's larynx, but later found to be indistinguishable from HeLa cells by PCR DNA analysis), were used for the culturing of genotype A, “Long” strain RSV. Flasks were inoculated with RSV and viral stocks were collected once cytopathic effect (CPE) was greater than 90%. Viral stocks in 25% sucrose media were snap frozen using liquid nitrogen to increase viral stability. Viral stock titers were quantified by tissue culture infectious dose 50% (TCID50) using 8,000 cells per well and 3-fold viral dilutions across a 96-well plate, cultured for 4 days. Viral stock titers were also quantified by a plaque forming unit assay, as described elsewhere.
Following extensive parameter testing, the final assay is run as follows: Hep-2 cells are seeded into the inner 60 wells of a 96-well plate at 8,000 cells per well in a volume of 50 μL using Growth Media (DMEM without phenol red, 1% L-Glut, 1% Penn/Strep, 1% nonessential amino acids, 10% heat-inactivated FBS). 2-fold serial dilutions of control and test compounds are added to the wells in duplicate in a total volume of 25 μL. Viral stock is then added to the wells at a multiplicity of infection (MOI) of 0.1 in a volume of 25 μL, bringing the total volume of each well to 100 μL. The MOI is calculated using the PFU/mL, or TCID50 if unavailable. Each 96-well plate has a control column of 6 wells with cells and virus but no compound (negative control, max CPE), a column with cells but no compound or virus (positive control, minimum CPE), and a column with no cells or virus or compound (background plate/reagent control). The control wells with cells but no virus are given an additional 25 uL of growth media containing an equal quantity of sucrose as those wells receiving the viral stock in order to keep consistent in media and volume conditions. The outer wells of the plate are filled with 125 μL of moat media (DMEM, 1% Penn/Strep) to act as a thermal and evaporative moat around the test wells. Following a 5-day incubation period, the plates are read using ATPlite (50 uL added per well), which quantifies the amount of ATP (a measure of cell health) present in each well. Assay plates are read using the Envision luminometer. In parallel, cytotoxicity is examined on an additional 96-well plate treated in an identical manner, but substituting the 25 μL of viral stock for 25 μL of growth media. […] EC50 ranges are as follows: A<0.4 μM; B 0.4-0.8 μM; C>0.8 μM and CC50 ranges are as follows: A>50 μM; B 10-50 μM; C<10 μM.

Structure (SMILES)	pEC50
O=C1Nc2ccccc2C(c2ccccc2)=N[C@@H]1Nc1nnc(-c2nc(C(F)(F)F)sc2N2CCO[C@H]3C[C@H]32)o1 (single isomer, unassigned) [Example 484]	> 6.40
O=C1Nc2ccccc2C(c2ccccc2)=N[C@H]1Nc1nnc(-c2nc(C(F)(F)F)sc2N2CCO[C@H]3C[C@H]32)o1 (single isomer, unassigned) [Example 485]	< 6.10
O=C1Nc2ccccc2C(c2ccccc2)=N[C@@H]1Nc1nnc(-c2nc(C(F)(F)F)sc2N2CCO[C@@H]3C[C@@H]32)o1 (single isomer, unassigned) [Example 486]	< 6.10
O=C1Nc2ccccc2C(c2ccccc2)=N[C@H]1Nc1nnc(-c2nc(C(F)(F)F)sc2N2CCO[C@@H]3C[C@@H]32)o1 (single isomer, unassigned) [Example 487]	< 6.10

Same assay, conditions: human respiratory syncytial virus, HEp-2, 120 h, read-out: Human RSV-A (“Long” strain) EC50

Structure (SMILES)	pEC50
O=C1Nc2ccccc2C(c2ccccc2)=N[C@@H]1Nc1nnc(-c2ncc(C(F)(F)F)cc2N2CCOC3CC32)o1 (mixture of isomers) [Example 466]	> 6.40
O=C1Nc2ccccc2C(c2ccccc2)=N[C@@H]1Nc1nnc(-c2ncc(C(F)(F)F)cc2N2CCOC(C(F)(F)F)C2)o1 (mixture of isomers) [Example 467]	> 6.40
N#Cc1ccc(-c2nnc(NC3N=C(c4ccccc4)c4ccccc4NC3=O)o2)nc1 (centres unmarked) [Example 24]	6.10 to 6.40
COc1cc(-c2nnc(NC3N=C(c4ccccc4)c4ccccc4NC3=O)o2)ccn1 (centres unmarked) [Example 56]	< 6.10
CCOC(=O)c1nnc(NC2N=C(c3ccccc3)c3ccccc3NC2=O)o1 (centres unmarked) [Example 78]	< 6.10
O=C1Nc2ccccc2C(c2ccccc2)=NC1Nc1ncc(-c2ccccc2)s1 (centres unmarked) [Example 85]	< 6.10
O=C1Nc2ccccc2C(c2ccccc2)=NC1Nc1noc(-c2ccccc2)n1 (centres unmarked) [Example 91]	< 6.10
COc1ccc(CN2C(=O)C(C)(N)N=C(c3ccccc3)c3ccccc32)cc1 (centres unmarked) [Example 102]	< 6.10
CS(=O)(=O)c1ccc(-c2nnc(NC3N=C(c4ccccc4)c4ccccc4NC3=O)o2)nc1 (centres unmarked) [Example 107]	< 6.10
COc1ccc(-c2nnc(NC3N=C(c4ccccc4)c4ccccc4NC3=O)o2)nc1Cl (centres unmarked) [Example 109]	< 6.10
Cc1nc(-c2nnc(NC3N=C(c4ccccc4)c4ccccc4NC3=O)o2)ccc1F (centres unmarked) [Example 110]	< 6.10
O=C1Nc2ccccc2C(c2ccccc2)=NC1Nc1nnc(-c2cccc(N3CCOCC3)c2)o1 (centres unmarked) [Example 111]	< 6.10
O=C1Nc2ccccc2C(c2ccccc2)=NC1Nc1nnc(-c2ccc(N3CCOCC3)c(F)c2)o1 (centres unmarked) [Example 112]	< 6.10
O=C1Nc2ccccc2C(c2ccccc2)=NC1Nc1nnc(-c2ccc(N3CCOCC3)cn2)o1 (centres unmarked) [Example 114]	< 6.10
O=C1Nc2ccccc2C(c2ccccc2)=NC1Nc1nnc(-c2ccc(N3CCOCC3)nc2)o1 (centres unmarked) [Example 115]	> 6.40
O=C1Nc2ccccc2C(c2ccccc2)=NC1Nc1nnc(-c2ccc(NC3CCCCC3)cc2)o1 (centres unmarked) [Example 116]	< 6.10
COCCNc1ccc(-c2nnc(NC3N=C(c4ccccc4)c4ccccc4NC3=O)o2)cc1 (centres unmarked) [Example 117]	< 6.10
COCCN(C)c1ccc(-c2nnc(NC3N=C(c4ccccc4)c4ccccc4NC3=O)o2)cc1 (centres unmarked) [Example 118]	< 6.10
O=C1Nc2ccccc2C(c2ccccc2)=NC1Nc1nnc(-c2cc(F)ccc2N2CCOCC2)o1 (centres unmarked) [Example 119]	6.10 to 6.40
CS(=O)(=O)c1ccc(-c2nnc(NC3N=C(c4ccccc4)c4ccccc4NC3=O)o2)c(N2CCOCC2)c1 (centres unmarked) [Example 121]	< 6.10
O=C1Nc2ccccc2C(c2ccccc2)=NC1Nc1nnc(-c2ccc(N3CCOCC3)cc2Cl)o1 (centres unmarked) [Example 122]	< 6.10
O=C1Nc2ccccc2C(c2ccccc2)=NC1Nc1nnc(-c2ccc(N3CCOCC3)cc2)o1 (centres unmarked) [Example 124a]	> 6.40
O=C1Nc2ccccc2C(c2ccccc2)=N[C@H]1Nc1nnc(-c2ccc(N3CCOCC3)cc2)o1 [Example 124b]	< 6.10
O=C1Nc2ccccc2C(c2ccccc2)=N[C@@H]1Nc1nnc(-c2ccccc2N2CCOCC2)o1 [Example 125a]	> 6.40
O=C1Nc2ccccc2C(c2ccccc2)=N[C@H]1Nc1nnc(-c2ccccc2N2CCOCC2)o1 [Example 125b]	< 6.10
O=C1Nc2ccccc2C(c2ccccc2)=N[C@@H]1Nc1nnc(-c2ccc(N3CCOCC3)cc2F)o1 [Example 126a]	> 6.40

Structure (SMILES)	pEC50
O=C1Nc2ccccc2C(c2ccccc2)=N[C@H]1Nc1nnc(-c2ccc(N3CCOCC3)cc2F)o1 [Example 126b]	< 6.10
O=C1Nc2ccccc2C(c2ccccc2)=NC1Nc1nnc(-c2ccc(-n3cncn3)cc2N2CCOCC2)o1 (centres unmarked) [Example 128]	6.10 to 6.40
O=C1Nc2ccccc2C(c2ccccc2)=NC1Nc1nnc(-c2ccc(C(F)(F)F)nc2N2CCOCC2)o1 (centres unmarked) [Example 130]	6.10 to 6.40
O=C1Nc2ccccc2C(c2ccccc2)=NC1Nc1nnc(-c2ncccc2N2CCOCC2)o1 (centres unmarked) [Example 132]	> 6.40
O=C1Nc2ccccc2C(c2ccccc2)=NC1Nc1nnc(-c2cnccc2N2CCOCC2)o1 (centres unmarked) [Example 133]	6.10 to 6.40
O=C1Nc2ccccc2C(c2ccccc2)=NC1Nc1nnc(-c2cnccc2N2CCCCC2)o1 (centres unmarked) [Example 134]	< 6.10
O=C1Nc2ccccc2C(c2ccccc2)=NC1Nc1nnc(-c2ncc(N3CCOCC3)cc2Cl)o1 (centres unmarked) [Example 135]	< 6.10
N#Cc1cnc(-c2nnc(NC3N=C(c4ccccc4)c4ccccc4NC3=O)o2)c(N2CCOCC2)c1 (centres unmarked) [Example 140]	> 6.40
O=C1Nc2ccccc2C(c2ccccc2)=NC1Nc1nnc(-c2ccncc2N2CCCCC2)o1 (centres unmarked) [Example 141]	< 6.10
O=C1Nc2ccccc2C(c2ccccc2)=NC1Nc1nnc(-c2ccncc2N2CCOCC2)o1 (centres unmarked) [Example 142]	6.10 to 6.40
O=C1Nc2ccccc2C(c2ccccc2)=NC1Nc1nnc(-c2nccnc2N2CCOCC2)o1 (centres unmarked) [Example 143]	> 6.40
O=C1Nc2ccccc2C(c2ccccc2)=NC1Nc1nnc(-c2cc(F)cnc2N2CCOCC2)o1 (centres unmarked) [Example 145]	6.10 to 6.40
O=C1Nc2ccccc2C(c2ccccc2)=NC1Nc1nnc(-c2cc(C(F)(F)F)cnc2N2CCOCC2)o1 (centres unmarked) [Example 146]	< 6.10
O=C1Nc2ccccc2C(c2ccccc2)=NC1Nc1nnc(-c2ccc(N3CCOCC3)cc2C(F)(F)F)o1 (centres unmarked) [Example 147]	< 6.10
O=C1Nc2ccccc2C(c2ccccc2)=NC1Nc1nnc(-c2cccc(F)c2N2CCOCC2)o1 (centres unmarked) [Example 148]	< 6.10
O=C1Nc2ccccc2C(c2ccccc2)=N[C@@H]1Nc1nnc(-c2ccc(F)nc2N2CCOCC2)o1 [Example 151, (S)-3-((5-(6-fluoro-2-morpholinopyridin-3-yl)-1,3,4-oxadiazol-2-yl)amino)-5-phenyl-1,3-dihydro-2H-benzo[e][1,4]diazepin-2-one]	> 6.40
O=C1Nc2ccccc2C(c2ccccc2)=N[C@@H]1Nc1nnc(-c2ccc(C(F)(F)F)cc2N2CCOCC2)o1 [Example 152]	> 6.40
O=C1Nc2ccccc2C(c2ccccc2)=N[C@@H]1Nc1nnc(-c2ccc(C3CC3)nc2N2CCOCC2)o1 [Example 154]	> 6.40
O=C1Nc2ccccc2C(c2ccccc2)=N[C@@H]1Nc1nnc(-c2ccc(=O)[nH]c2N2CCOCC2)o1 [Example 156, (S)-3-((5-(2-morpholino-6-oxo-1,6-dihydropyridin-3-yl)-1,3,4-oxadiazol-2-yl)amino)-5-phenyl-1,3-dihydro-2H-benzo[e][1,4]diazepin-2-one]	< 6.10
N#Cc1ccc(-c2nnc(N[C@H]3N=C(c4ccccc4)c4ccccc4NC3=O)o2)c(N2CCOCC2)c1 [Example 157]	> 6.40
O=C1Nc2ccccc2C(c2ccccc2)=N[C@@H]1Nc1nnc(-c2ccc(F)cc2N2CCOCC2)o1 [Example 159]	> 6.40
O=C1Nc2ccccc2C(c2ccccc2)=N[C@@H]1Nc1nnc(-c2cnc(N3CCOCC3)cn2)o1 [Example 161]	< 6.10
O=C1Nc2ccccc2C(c2ccccc2)=N[C@@H]1Nc1nnc(-c2cnc(C(F)(F)F)nc2N2CCOCC2)o1 [Example 162]	> 6.40
O=C1Nc2ccccc2C(c2ccccc2)=N[C@@H]1Nc1nnc(-c2nc3ccccn3c2N2CCOCC2)o1 [Example 163]	< 6.10
Cn1cc(N2CCOCC2)c(-c2nnc(N[C@H]3N=C(c4ccccc4)c4ccccc4NC3=O)o2)n1 [Example 164]	> 6.40
O=C1Nc2ccccc2C(c2ccccc2)=N[C@@H]1Nc1nnc(-c2cnc(N3CCOCC3)nc2)o1 [Example 165]	6.10 to 6.40
